# Columns and labels:
# [1] = Triplet-state decay kinetics by laser flash photolysis; format: physicochemical; details: hexane solution, comparable experimental conditions
# Description: Measurement of Triplet-State Decay Kinetics in Hexakis-Substituted C60 Fullerene Derivatives. Decay kinetics of the triplet states for the hexakis-substituted C60 derivatives were measured by laser flash photolysis using a 308 nm laser pulse (10-20 mJ with a pulse width of 10 ns). A xenon lamp was used as the monitoring source. […] The test solutions were purged with bubbling argon gas for 15 minutes and then sealed from the atmosphere. Instantaneous generation of the triplet state was induced by laser pulse irradiation with subsequent monitoring between 650 and 770 nm, depending on the specific functional groups present in each hexakis-substituted C60 fullerene derivative.
# [2] = Photochemically-induced singlet oxygen production, furfuryl alcohol (FFA) degradation under BLB lamps; details: 50 μM derivative, 0.5 mM FFA
# Description: Photochemically-Induced Singlet Oxygen Production from Hexakis-Substituted C60 Fullerene Derivatives. Photochemical generation of singlet oxygen was performed using a magnetically stirred 60 mL cylindrical quartz reactor surrounded by six 4 W black light blue (BLB) lamps (emission wavelength region: 350-400 nm, Philips TL4W) at ambient temperature (22° C.). The incident light intensity was 3.79×10^−4 Einstein·min^−1L^−1. Reaction solutions containing 50 μM of hexakis-substituted C60 fullerene derivatives 1-4 and 0.5 mM furfuryl alcohol (FFA) as an indicator/reactant for singlet oxygen formed were buffered at pH=7 using 10 mM phosphate buffer. Thereafter, the solutions were exposed to the light source. As the photochemical reaction proceeded, 1 mL sample aliquots were periodically withdrawn from the reactor using a syringe, filtered through a 0.22 μm PTFE filter (Millipore), and injected into a 2 mL amber glass vial for further analysis. The residual FFA concentration was quantified using HPLC. […] Generation of singlet oxygen from commercially-available fullerol is presented for comparison purposes.
# Table 1 summarizes the initial degradation rate of FFA in the presence of hexakis-substituted C60 fullerene derivatives 1-4 in comparison to commercially available fullerol and Rose Bengal. Initial FFA degradation rates of hexakis-substituted C60 fullerene derivatives 1-4 in the presence of L-histidine and t-butanol are also presented for comparison. […] As shown by the FFA degradation rate, the singlet oxygen production of the C60 fullerene derivatives was greatest for hexakis-substituted C60 fullerene derivative 4 and smallest for hexakis-substituted C60 fullerene derivative 1.
Structure (SMILES),triplet state formation [1],"Initial FFA Degradation Rate, No Scavenger ([2]; pH 7, 10 mM phosphate buffer, BLB 350-400 nm, no scavenger)","Initial FFA Degradation Rate, L-Histidine Scavenger ([2]; pH 7, BLB 350-400 nm, excess L-histidine)","Initial FFA Degradation Rate, t-Butanol Scavenger ([2]; pH 7, BLB 350-400 nm, t-butanol)"
"c12c3c4c5c1c1c6c7c2c2c8c3c3c9c4c4c%10c5c5c1c1c6c6c%11c7c2c2c7c8c3c3c8c9c4c4c9c%10c5c5c1c1c6c6c%11c2c2c7c3c3c8c4c4c9c5c1c1c6c2c3c41 [C60, Buckminsterfullerene]",not detected,,,
O=C([O-])c1c(Cl)c(Cl)c(Cl)c(Cl)c1-c1c2cc(I)c(=O)c(I)c-2oc2c(I)c([O-])c(I)cc12.[Na+].[Na+] [Rose Bengal],,16.34 ± 0.29,0.07 ± 0.04,16.70 ± 0.47

# Reference: US8679442B2, “Fullerene compositions and methods for photochemical purification” (William Marsh Rice University, priority 2009, dated 2014)
